Data on 17 compounds can be found in patent US9499538B2, “Estrogen receptor modulators and uses thereof” (Seragon Pharmaceuticals, Inc., priority 2012, dated 2016).

Assay [1] relates to MCF-7 cells. The assay is described as follows: Breast Cancer Cell Viability Assays (MCF-7, CellTiter-Glo). Type of assay: cell-based. The conditions noted are these: 5 days' compound exposure; for IC50: Homo sapiens, MCF7, 120 h. Summed up:
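MCF-7 cells (320/well, RPMI with 10% FBS) exposed for 5 days to an eleven-point semilog series, 0.3–0.000003 μM final. Viability read by CellTiter-Glo luminescence, expressed as background-corrected percent of untreated cells.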

The target in assay [2] is T1, ER-α in MCF-7 cells (Homo sapiens, UniProt P03372).
T1 construct: endogenous in cells; host or cells: MCF-7
T1 sequence (P03372 1-595): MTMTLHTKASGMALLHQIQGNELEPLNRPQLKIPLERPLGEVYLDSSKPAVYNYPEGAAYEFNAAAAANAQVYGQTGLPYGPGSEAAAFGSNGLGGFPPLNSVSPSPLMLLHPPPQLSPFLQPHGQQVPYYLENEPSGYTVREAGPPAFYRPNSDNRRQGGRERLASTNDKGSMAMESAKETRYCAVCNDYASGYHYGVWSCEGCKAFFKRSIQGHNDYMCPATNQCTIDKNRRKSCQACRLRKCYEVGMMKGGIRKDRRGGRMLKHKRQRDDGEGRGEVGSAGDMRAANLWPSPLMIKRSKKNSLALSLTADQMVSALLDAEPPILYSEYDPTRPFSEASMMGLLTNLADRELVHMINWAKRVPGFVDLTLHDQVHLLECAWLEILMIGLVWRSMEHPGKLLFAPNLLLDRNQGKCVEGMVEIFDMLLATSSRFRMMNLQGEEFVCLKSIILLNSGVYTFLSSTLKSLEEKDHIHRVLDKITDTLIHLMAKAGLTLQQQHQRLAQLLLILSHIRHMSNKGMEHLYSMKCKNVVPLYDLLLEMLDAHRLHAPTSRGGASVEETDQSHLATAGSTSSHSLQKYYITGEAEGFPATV
The assay is described as follows: Breast Cancer Cell ER-α In Cell Western Assay (SP1). Type of assay: cell-based. The conditions noted are these: 4 or 24 hr post compound addition; for Emax: MCF7, SP1 antibody, read-out: ER-α In Cell Western Assay (SP1) Max Response; for DC50: SP1 antibody, read-out: ER-α In Cell Western Assay (SP1) IC50. Put shortly:
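MCF-7 cells in charcoal-stripped FBS medium, treated with 11-point semilog dilutions (0.3–0.000003 μM final) for 4 or 24 h. Fixed cells immunostained with SP1 antibody (800 nm) and DRAQ5 DNA (700 nm); ER/DNA ratio expressed as % of untreated cells.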

In the case of `O=C(O)/C=C/c1ccc(/C(=C(\c2ccc(Cl)cc2Cl)C2CCC2)c2ccc3[nH]nc(F)c3c2)cn1` [Example 268, (E)-3-(5-((Z)-2-Cyclobutyl-2-(2,4-dichlorophenyl)-1-(3-fluoro-1H-indazol-5-yl)vinyl)pyridin-2-yl)acrylic acid], in assay [1], the “MCF7 Viability Assay Max Response” value is on record as “++ (++ = a single % value ≧ 40%)” and the IC50 was not above 100 nM. In addition, in assay [2], the Emax was not below 40% and the DC50 was not above 100 nM.

As for `O=C(O)/C=C/c1ccc(/C(=C(\c2ccc(F)cc2C(F)(F)F)C2CCC2)c2ccc3[nH]nc(F)c3c2)cn1` [Example 269, (E)-3-(5-((Z)-2-Cyclobutyl-1-(3-fluoro-1H-indazol-5-yl)-2-(4-fluoro-2-(trifluoromethyl)phenyl)vinyl)pyridin-2-yl)acrylic acid], in assay [1], the “MCF7 Viability Assay Max Response” value is “++ (++ = a single % value ≧ 40%)” and the concentration for half-maximal inhibition (IC50) was not above 100 nM. For the same compound, in assay [2], the Emax was not below 40% and the DC50 was not above 100 nM.

For the compound `COc1ccc(/C(=C(\c2ccc(/C=C/C(=O)O)nc2)c2ccc3[nH]nc(F)c3c2)C2CCC2)c(Cl)c1` [Example 270, (E)-3-(5-((Z)-2-(2-Chloro-4-methoxyphenyl)-2-cyclobutyl-1-(3-fluoro-1H-indazol-5-yl)vinyl)pyridin-2-yl)acrylic acid], in assay [1], the “MCF7 Viability Assay Max Response” value is on record as “++ (++ = a single % value ≧ 40%)” and the IC50 was not above 100 nM. Also, in assay [2], the Emax is not below 40% and the DC50 was not above 100 nM.

Take `O=C(O)/C=C/c1ccc(/C(=C(\c2ccc(F)cc2Cl)C2CCC2)c2ccc3[nH]nc(F)c3c2)cc1F` [Example 271, (E)-3-(4-((Z)-2-(2-Chloro-4-fluorophenyl)-2-cyclobutyl-1-(3-fluoro-1H-indazol-5-yl)vinyl)-2-fluorophenyl)acrylic acid]: in assay [1], the “MCF7 Viability Assay Max Response” value is reported as “++ (++ = a single % value ≧ 40%)” and the IC50 was not above 100 nM. Further, in assay [2], the Emax was not below 40% and the DC50 is not above 100 nM.

As to `O=C(O)/C=C/c1ccc(/C(=C(\c2ccc(OC(F)(F)F)cc2Cl)C2CCC2)c2ccc3[nH]nc(F)c3c2)cn1` [Example 272, (E)-3-(5-((Z)-2-(2-Chloro-4-(trifluoromethoxy)phenyl)-2-cyclobutyl-1-(3-fluoro-1H-indazol-5-yl)vinyl)pyridin-2-yl)acrylic acid], in assay [1], the “MCF7 Viability Assay Max Response” value is reported as “++ (++ = a single % value ≧ 40%)” and the IC50 was not above 100 nM. Moreover, in assay [2], the Emax was not below 40% and the DC50 is not above 100 nM.

As for `O=C(O)/C=C/c1ccc(/C(=C(\c2ccc(OC(F)(F)F)cc2Cl)C2CCC2)c2ccc3[nH]nc(F)c3c2)cc1` [Example 273, (E)-3-(4-((E)-2-(2-Chloro-4-(trifluoromethoxy)phenyl)-2-cyclobutyl-1-(3-fluoro-1H-indazol-5-yl)vinyl)phenyl)acrylic acid], in assay [1], the “MCF7 Viability Assay Max Response” value is listed as “++ (++ = a single % value ≧ 40%)” and the IC50 is not above 100 nM. In assay [2], the Emax is not below 40% and the DC50 is not above 100 nM.

For `O=C(O)/C=C/c1ccc(/C(=C(\c2ccc(C(F)(F)F)cc2Cl)C2CCC2)c2ccc3scnc3c2)cc1` [Example 274, (E)-3-(4-((E)-1-(Benzo[d]thiazol-5-yl)-2-(2-chloro-4-(trifluoromethyl)phenyl)-2-cyclobutylvinyl)phenyl)acrylic acid], in assay [1], the “MCF7 Viability Assay Max Response” value was “++ (++ = a single % value ≧ 40%)” and the 50% inhibitory concentration (IC50) was not above 100 nM. In assay [2], the Emax is not below 40% and the DC50 is not above 100 nM.

With `O=C(O)/C=C/c1ccc(/C(=C(\c2ccc(C(F)(F)F)cc2Cl)C2CCC2)c2ccc3[nH]nc(F)c3c2)cc1` [Example 275, (E)-3-(4-((E)-2-(2-Chloro-4-(trifluoromethyl)phenyl)-2-cyclobutyl-1-(3-fluoro-1H-indazol-5-yl)vinyl)phenyl)acrylic acid], in assay [1], the “MCF7 Viability Assay Max Response” value is reported as “++ (++ = a single % value ≧ 40%)” and the IC50 was not above 100 nM. Besides, in assay [2], the Emax is not below 40% and the DC50 is not above 100 nM.

For `COc1ccc(/C(=C(\c2ccc(/C=C/c3noc(=O)[nH]3)cc2)c2ccc3[nH]nc(F)c3c2)C2CCC2)c(Cl)c1` [Example 276, 3-((E)-4-((E)-2-(2-Chloro-4-methoxyphenyl)-2-cyclobutyl-1-(3-fluoro-1H-indazol-5-yl)vinyl)styryl)-1,2,4-oxadiazol-5(4H)-one], in assay [1], the “MCF7 Viability Assay Max Response” value is given as “++ (++ = a single % value ≧ 40%)” and the IC50 was not above 100 nM. In assay [2], the Emax is not below 40% and the DC50 is not above 100 nM.

For `O=c1[nH]c(/C=C/c2ccc(/C(=C(\c3ncc(C(F)(F)F)cc3Cl)C3CCC3)c3ccc4scnc4c3)cc2)no1` [Example 277, 3-((E)-4-((E)-1-(Benzo[d]thiazol-5-yl)-2-(3-chloro-5-(trifluoromethyl)pyridin-2-yl)-2-cyclobutylvinyl)styryl)-1,2,4-oxadiazol-5(4H)-one], in assay [1], the “MCF7 Viability Assay Max Response” value is “++ (++ = a single % value ≧ 40%)” and the IC50 was not above 100 nM. Moreover, in assay [2], the Emax was not below 40% and the DC50 is not above 100 nM.

In the case of `COc1ccc(/C(=C(\c2ccc(/C=C/c3noc(=O)[nH]3)cc2)c2ccc3scnc3c2)C2CCC2)c(Cl)c1` [Example 278, 3-((E)-4-((E)-1-(Benzo[d]thiazol-5-yl)-2-(2-chloro-4-methoxyphenyl)-2-cyclobutylvinyl)styryl)-1,2,4-oxadiazol-5(4H)-one], in assay [1], the “MCF7 Viability Assay Max Response” value is “++ (++ = a single % value ≧ 40%)” and the IC50 was not above 100 nM. In addition, in assay [2], the Emax was not below 40% and the DC50 is not above 100 nM.

With `O=c1[nH]c(/C=C/c2ccc(/C(=C(\c3ncc(C(F)(F)F)cc3Cl)C3CCC3)c3ccc4[nH]nc(F)c4c3)cc2)no1` [Example 279, 3-((E)-4-((E)-2-(3-Chloro-5-(trifluoromethyl)pyridin-2-yl)-2-cyclobutyl-1-(3-fluoro-1H-indazol-5-yl)vinyl)styryl)-1,2,4-oxadiazol-5(4H)-one], in assay [1], the “MCF7 Viability Assay Max Response” value is listed as “++ (++ = a single % value ≧ 40%)” and the IC50 was not above 100 nM. In assay [2], the Emax was not below 40% and the DC50 was not above 100 nM.

With `N#Cc1cc(C(F)(F)F)ccc1/C(=C(\c1ccc(/C=C/c2noc(=O)[nH]2)cc1)c1ccc2[nH]nc(F)c2c1)C1CCC1` [Example 280, 2-((E)-1-Cyclobutyl-2-(3-fluoro-1H-indazol-5-yl)-2-(4-((E)-2-(5-oxo-4,5-dihydro-1,2,4-oxadiazol-3-yl)vinyl)phenyl)vinyl)-5-(trifluoromethyl)benzonitrile], in assay [1], the “MCF7 Viability Assay Max Response” value was “++ (++ = a single % value ≧ 40%)” and the IC50 was not above 100 nM. Also, in assay [2], the Emax was not below 40% and the DC50 is not above 100 nM.

On to `CS(=O)(=O)c1cc(Cl)ccc1/C(=C(\c1ccc(/C=C/C(=O)O)cc1)c1ccc2scnc2c1)C1CCC1` [Example 281, (E)-3-(4-((E)-1-(Benzo[d]thiazol-5-yl)-2-(4-chloro-2-(methylsulfonyl)phenyl)-2-cyclobutylvinyl)phenyl)acrylic acid], for which, in assay [1], the “MCF7 Viability Assay Max Response” value was “++ (++ = a single % value ≧ 40%)” and the IC50 was not above 100 nM. In assay [2], the Emax was not below 40% and the DC50 is not above 100 nM.

With `CS(=O)(=O)c1cc(Cl)ccc1/C(=C(\c1ccc(/C=C/C(=O)O)cc1)c1ccc2[nH]nc(F)c2c1)C1CCC1` [Example 282, (E)-3-(4-((E)-2-(4-Chloro-2-(methylsulfonyl)phenyl)-2-cyclobutyl-1-(3-fluoro-1H-indazol-5-yl)vinyl)phenyl)acrylic acid], in assay [1], the “MCF7 Viability Assay Max Response” value was “++ (++ = a single % value ≧ 40%)” and the IC50 is not above 100 nM. For the same compound, in assay [2], the Emax was not below 40% and the DC50 was not above 100 nM.

Turning to `O=c1[nH]nc(/C=C/c2ccc(/C(=C(\c3ccccc3)C3CCC3)c3ccc4[nH]nc(F)c4c3)cc2)[nH]1` [Example 283, 3-((E)-4-((E)-2-Cyclobutyl-1-(3-fluoro-1H-indazol-5-yl)-2-phenylvinyl)styryl)-1H-1,2,4-triazol-5(4H)-one], in assay [1], the “MCF7 Viability Assay Max Response” value is “++ (++ = a single % value ≧ 40%)” and the IC50 is not above 100 nM. Further, in assay [2], the Emax was not below 40% and the DC50 is not above 100 nM.

As for `Fc1n[nH]c2ccc(/C(=C(/c3ccccc3)C3CCC3)c3ccc(/C=C/c4nnc[nH]4)cc3)cc12` [Example 284, 5-((E)-1-(4-((E)-2-(4H-1,2,4-Triazol-3-yl)vinyl)phenyl)-2-cyclobutyl-2-phenylvinyl)-3-fluoro-1H-indazole], in assay [1], the “MCF7 Viability Assay Max Response” value was “++ (++ = a single % value ≧ 40%)” and the IC50 is not above 100 nM. In assay [2], the Emax is not below 40% and the DC50 was not above 100 nM.
